Experimental data taken from paper PMC7567097, “A nanoluciferase SARS-CoV-2 for rapid neutralization testing and screening of anti-infective drugs for COVID-19” (Nature Communications, 2020).
Where two headings read alike, the source gives them in different places.

Tests used:
SARS-CoV-2-Nluc [1] = experiment: microbe, parasite or virus in culture; format: cell-based
SARS-CoV-2-Nluc [2] = experiment: microbe, parasite or virus in culture; format: cell-based; details: Severe acute respiratory syndrome coronavirus 2, Vero C1008, 48 h
[3] = Cytotoxicity assay (CCK-8, 72 h) in Vero E6 cells; format: cell-based, African green monkey; details: African green monkey, Vero E6 cells; for viability at 72 h: Vero, two replicates, read-out: cell viability (% of DMSO control)
Vero E6 cells = experiment: Cytotoxicity assay (CCK-8, 72 h) in Vero E6 cells; format: cell-based, African green monkey; details: Vero, two replicates
COVID-19 = test system: COVID-19; parameters: method as in PMID 32649078; details: 1063 patients hospitalized with COVID-19; placebo group 15 days; cited from earlier work
in vitro = details: human; for viability: cell viability (% of DMSO control)

Work on `CCC(CC)COC(=O)[C@H](C)N[P@](=O)(OC[C@H]1O[C@@](C#N)(c2ccc3c(N)ncnn23)[C@H](O)[C@@H]1O)Oc1ccccc1` [Remdesivir] yielded an EC50 (SARS-CoV-2-Nluc [1]; Severe acute respiratory syndrome coronavirus 2, 48 h) of 0.115 ± 0.007 µM, an EC50 (SARS-CoV-2-Nluc [1]; Severe acute respiratory syndrome coronavirus 2, read-out: EC50 (µM) Replicate 1) of 0.11 µM and an EC50 (SARS-CoV-2-Nluc [1]; Severe acute respiratory syndrome coronavirus 2, read-out: EC50 (µM) Replicate 2) of 0.12 µM. The EC50 (SARS-CoV-2-Nluc [2]) was 1.28 µM, the viability at 72 h ([3]; Concentration 0.00152416) was 100% and the viability at 72 h ([3]; Concentration 0.00457247) was 102%. For the same molecule, the viability at 72 h ([3]; Concentration 0.0137174) was 91.3%, the viability at 72 h ([3]; Concentration 0.0411523) was 104% and the viability at 72 h ([3]; Concentration 0.123457) was 80.3%. It also gave a viability at 72 h ([3]; Concentration 0.37037) of 80.3%, a viability at 72 h ([3]; Concentration 1.11111) of 102% and a viability at 72 h ([3]; Concentration 3.33333) of 87.9%. The viability at 72 h ([3]; Concentration 10) was 68%, the CC50 at 72 h ([3]; 3-day cytotoxicity) was over 50 µM and the “cell viability (% of DMSO control)” value (Vero E6 cells; Concentration 0.00152416) was 98.69%. For the same molecule, the “cell viability (% of DMSO control)” value (Vero E6 cells; Concentration 0.00457247) was 100.09%, the “cell viability (% of DMSO control)” value (Vero E6 cells; Concentration 0.0137174) was 99.13% and the “cell viability (% of DMSO control)” value (Vero E6 cells; Concentration 0.0411523) was 93.89%. The “cell viability (% of DMSO control)” value (Vero E6 cells; Concentration 0.123457) was 91.88%, the “cell viability (% of DMSO control)” value (Vero E6 cells; Concentration 0.37037) was 90.48% and the “cell viability (% of DMSO control)” value (Vero E6 cells; Concentration 1.11111) was 90.39%. For the same molecule, the “cell viability (% of DMSO control)” value (Vero E6 cells; Concentration 3.33333) was 89.52%, the “cell viability (% of DMSO control)” value (Vero E6 cells; Concentration 10) was 70.92% and the “cell viability (% of DMSO control)” value (A549-hACE2 cells; Concentration 0.00152416) was 98.72%. For the same molecule, the “cell viability (% of DMSO control)” value (A549-hACE2 cells; Concentration 0.00457247) was 97.64%, the “cell viability (% of DMSO control)” value (A549-hACE2 cells; Concentration 0.0137174) was 95.55% and the “cell viability (% of DMSO control)” value (A549-hACE2 cells; Concentration 0.0411523) was 98.85%. The “cell viability (% of DMSO control)” value (A549-hACE2 cells; Concentration 0.123457) was 98.18%, the “cell viability (% of DMSO control)” value (A549-hACE2 cells; Concentration 0.37037) was 92.18% and the “cell viability (% of DMSO control)” value (A549-hACE2 cells; Concentration 1.11111) was 95.21%. The “cell viability (% of DMSO control)” value (A549-hACE2 cells; Concentration 3.33333) was 90.42%, the “cell viability (% of DMSO control)” value (A549-hACE2 cells; Concentration 10) was 87.86% and the CC50 (A549-hACE2 cells; human) was 32.7 ± 5.2 µM. For the same molecule, the recovery time (COVID-19) was 11 days, the CC50 (in vitro; CC50) was 32.5 µM and the CC50 (in vitro; CC50 (µM) Replicate 1) was 29 µM. For the same molecule, the CC50 (in vitro; CC50 (µM) Replicate 2) was 36.4 µM, the viability (in vitro; Concentration 0.00152416) was 100% and the viability (in vitro; Concentration 0.00457247) was 99.8%. The viability (in vitro; Concentration 0.0137174) was 102%, the viability (in vitro; Concentration 0.0411523) was 102% and the viability (in vitro; Concentration 0.123457) was 101%. For the same molecule, the viability (in vitro; Concentration 0.37037) was 96.9%, the viability (in vitro; Concentration 1.11111) was 100% and the viability (in vitro; Concentration 3.33333) was 101%. The viability (in vitro; Concentration 10) was 84.9%.
